Holding throughout (test): NCI anticancer screen, dose series, 48 h
Assay [1] deals with MDA-MB-435.
Assay [2] deals with SF-539 CNS.
Assay [3] concerns HCT-116 colon.
For assay [4], the system named is A549 NSCLC.
For assay [5], the system named is SNB-19 CNS.
In assay [6] the test system is HS 578T breast.
Assay [7] relates to MDA-MB-231 breast.
In assay [8] the test system is MCF7 breast.

Structures are written as SMILES.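 Interpolation was linear, between the two tested concentrations surrounding the appropriate level; five concentrations were tested over 48 hours in 96-well plates. TGI denotes the concentration required for complete inhibition of growth.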

Consider `C=CCOC(=O)C1=C(C)NC2=N[C@H](CCCCCCCCC)C[C@@H]3CCC1N23` (some centres not stated), for which the TGI was 44.5 µM in assay [1]; 38.1 µM in assay [2]; 36 µM in assay [3]; greater than 100 µM in assay [4]; 42 µM in assay [5]; 54.4 µM in assay [6]. The TGI amounted to 41.7 µM in assay [7] and 36.5 µM in assay [8].

In the case of `Cc1cc(=O)oc2cc(OCC(O)COC(C)C)ccc12` (configuration not stated), the TGI in assay [3], in assay [4], in assay [5], in assay [6], in assay [7] and in assay [8] was greater than 100 µM in each case.

As to `CCN(CC)CCN(C)c1ccc(CO)c2c1C(=O)c1ccccc1S2=O` (configuration not stated), the TGI in assay [1] is 3.65 µM; in assay [2] it was 3.61 µM; in assay [3] it was 3.97 µM; in assay [4], 25.6 µM; in assay [5] it was 26.9 µM; in assay [6] it was 28.5 µM. The TGI was 7.7 µM in assay [7] and greater than 34.5 µM in assay [8].

In the case of `CC(=O)O[C@H]1C(=O)[C@@]2(C)[C@H]([C@H](OC(=O)c3ccccc3)[C@]3(O)C[C@H](OC(=O)[C@H](O)[C@@H](NC(=O)c4ccco4)c4ccccc4)C(C)=C1C3(C)C)[C@]1(OC(C)=O)CO[C@@H]1C[C@@H]2O`, the TGI in assay [2] is 0.00454 µM; in assay [3], greater than 12.5 µM; in assay [4], greater than 12.5 µM; in assay [5] it was greater than 12.5 µM; in assay [6] it was 0.00279 µM; in assay [7], greater than 12.5 µM. The TGI in assay [8] is greater than 12.5 µM.

Turning to `Clc1ccc(CCN[C@H]2CCCC[C@H]2N2CCCC2)cc1Cl`, the TGI in assay [1] is 43.8 µM; in assay [2] it was 75.3 µM; in assay [3], greater than 100 µM; in assay [4], 89.6 µM; in assay [5] it was 69.5 µM; in assay [6], greater than 100 µM. Moreover, the TGI was greater than 100 µM in assay [7] and 35.7 µM in assay [8].

With `NC1CCC(N(CC(=O)O)CC(=O)O)C(N(CC(=O)O)CC(=O)O)C1` (configuration not stated), the TGI in assay [1], in assay [2], in assay [3], in assay [4], in assay [5] and in assay [6] was greater than 100 µM throughout. Also, the TGI in assay [7] and in assay [8] was greater than 100 µM each time.

On to `CC1=CC[C@@]2(C)CC[C@](O)(C(C)C)C2C(OC(=O)c2ccccc2)C1` (some centres not stated), for which the TGI in assay [1] was 93.2 µM; in assay [2] it was 37.4 µM; in assay [3], 31.8 µM; in assay [4], 37.3 µM; in assay [5], 40.5 µM; in assay [6] it was 47.9 µM. Also, the TGI in assay [7] turned out to be 37.6 µM; in assay [8], 34.4 µM.

Consider `CN(C)c1c(C2OC(CO)C(O)C2O)c(=O)c1=O` (configuration not stated), for which the TGI in assay [1], in assay [2], in assay [3], in assay [4], in assay [5] and in assay [6] was greater than 100 µM each time. The TGI in assay [7] and in assay [8] was greater than 100 µM in each case.

For `CCC(C)[C@@H](Nc1c(O)c2c(c(O)c1Cl)C(=O)C=CC2=O)C(=O)OC` (some centres not stated), the TGI in assay [1] is greater than 10 µM; in assay [2], greater than 10 µM; in assay [3] it was 6.94 µM; in assay [4] it was greater than 10 µM; in assay [5] it was greater than 10 µM; in assay [6], greater than 10 µM. Also, the TGI is 7.81 µM in assay [7] and greater than 10 µM in assay [8].

`CSc1ccc(Nc2cc(=O)[nH]c(=O)[nH]2)cc1`: the TGI in assay [1], in assay [2], in assay [3], in assay [4], in assay [5] and in assay [6] was greater than 100 µM in each case. Moreover, the TGI in assay [7] and in assay [8] was greater than 100 µM throughout.

Take `CC1=C(O)c2ccccc2C(=O)C1=O`: the TGI in assay [1], in assay [2], in assay [3], in assay [4], in assay [5] and in assay [6] was greater than 100 µM throughout. The TGI in assay [7] and in assay [8] was greater than 100 µM each time.

For `CC(Nc1ccc(Cl)c(Cl)c1)c1ccncc1` (configuration not stated), the TGI in assay [1] was greater than 100 µM; in assay [2], 56.4 µM; in assay [3], 36.5 µM; in assay [4], greater than 100 µM; in assay [5], greater than 100 µM; in assay [7], 45.1 µM. The compound further returned a TGI in assay [8] greater than 100 µM.

Turning to `COC(C)(C)/C=C/c1[nH]c2ccccc2c1CC(=O)NCCc1cn(C(c2ccccc2)(c2ccccc2)c2ccccc2)cn1`, the TGI is 22.3 µM in assay [1]; 14.1 µM in assay [2]; 14.8 µM in assay [3]; greater than 100 µM in assay [4]; greater than 100 µM in assay [5]; 60.2 µM in assay [6]. Further, the figures for the TGI in assay [7] and in assay [8] were 15 µM and 15.5 µM, respectively.

As for `CC(=O)OCC(=O)OC[C@H](OCc1ccccc1)[C@@H]1[C@H](OC(C)=O)C(=O)N1Cc1ccccc1`, the TGI in assay [1], in assay [3], in assay [4], in assay [5], in assay [6] and in assay [7] was greater than 100 µM throughout. The compound further returned a TGI in assay [8] greater than 100 µM.

`OC(CN(CCCl)CCCl)C(O)C(O)C(O)CN(CCCl)CCCl` (configuration not stated): the TGI in assay [1], in assay [2], in assay [3], in assay [4], in assay [5] and in assay [6] was greater than 100 µM throughout. The TGI in assay [7] and in assay [8] was greater than 100 µM each time.

On to `CC(=O)c1ccc2c(c1)CC1(C2)Cc2cc3c(c(C(=O)O)c2C1)CCC3` (configuration not stated), for which the TGI in assay [1], in assay [2], in assay [3], in assay [4], in assay [6] and in assay [7] was greater than 100 µM in each case. Also, the TGI in assay [8] was greater than 100 µM.

With `CC(C)=CCC[C@@H](C)C1=C(O)C(Nc2ccccc2Cl)=C(C)C(=O)C1=O`, the TGI in assay [1] was greater than 75 µM; in assay [2], 35.7 µM; in assay [3] it was greater than 50.9 µM; in assay [4], greater than 59.7 µM; in assay [5], greater than 75 µM; in assay [6] it was greater than 69.9 µM. Further, the TGI in assay [7] is greater than 70.8 µM; in assay [8], greater than 75 µM.

In the case of `COC(=O)/C=C1/OC(c2ccccc2)=C(C)C1=O`, the TGI was 27.5 µM in assay [1]; 32.2 µM in assay [2]; 15.4 µM in assay [3]; 30.5 µM in assay [5]; 83.9 µM in assay [6]; 15.7 µM in assay [7]. This compound also registered a TGI in assay [8] of 16.6 µM.

In the case of `Nc1nc(NCCCO)cc(=O)[nH]1`, the TGI in assay [1], in assay [3], in assay [4], in assay [5], in assay [6] and in assay [7] was greater than 100 µM in each case. Further, the TGI in assay [8] is greater than 100 µM.

With `CCOC(=O)c1c(NC(=S)Nc2ccc(Cl)cc2)sc2c1CCN(C)C2`, the TGI in assay [2], in assay [3], in assay [4], in assay [5], in assay [6] and in assay [7] was greater than 100 µM throughout. Besides, in assay [8], the TGI is greater than 100 µM.

For `COc1ccc(N=NC(=O)NC(CC(C)C)C(=O)NCC(=O)O)cc1` (configuration not stated), the TGI was greater than 100 µM in assay [1]; 29.7 µM in assay [2]; greater than 100 µM in assay [3]; greater than 61.9 µM in assay [4]; greater than 100 µM in assay [5]; greater than 100 µM in assay [6]. Moreover, the TGI in assay [7] and in assay [8] was greater than 100 µM each time.

`Nc1ncnc2c1ncn2C1CCC(CP(=O)(O)O)C1` (configuration not stated): the TGI in assay [1], in assay [2], in assay [3], in assay [4], in assay [5] and in assay [6] was greater than 100 µM in each case. The TGI in assay [7] and in assay [8] was greater than 100 µM in each case.

With `COc1c(C(=O)NCCN(CCNC(=O)c2cccc(-c3cccc(C(=O)N(C)C)c3OC)c2OC)CCNC(=O)c2cccc(-c3cccc(C(=O)N(C)C)c3OC)c2OC)cccc1-c1cccc(C(=O)N(C)C)c1OC`, the TGI in assay [1] was 39.8 µM; in assay [2], 36.2 µM; in assay [3] it was 41.4 µM; in assay [4], greater than 100 µM; in assay [5], greater than 100 µM; in assay [6] it was 87.3 µM. Besides, the TGI worked out at 81.2 µM in assay [7] and 78 µM in assay [8].

In the case of `O=C1O[C@H]2[C@H](OC(=O)c3cc(O)c(O)c(O)c3)[C@@H](OC(=O)c3cc(O)c(O)c4c3[C@@H]3C1=CC(=O)C(O)(O)C3(O)O4)[C@H](OC(=O)c1cc(O)c(O)c(O)c1)O[C@@H]2COC(=O)c1cc(O)c(O)c(O)c1` (some centres not stated), the TGI in assay [1], in assay [3], in assay [4], in assay [5], in assay [6] and in assay [7] was greater than 100 µM each time. In assay [8], this compound showed a TGI greater than 100 µM.

In the case of `CSc1nc2c(c(=O)n1C)N=C(c1ccc([N+](=O)[O-])cc1)CC(c1ccccc1)N2` (configuration not stated), the TGI in assay [1], in assay [2], in assay [3], in assay [4], in assay [5] and in assay [7] was greater than 100 µM in each case. The compound also yielded a TGI in assay [8] greater than 100 µM.

Regarding `C=C1C(=O)O[C@H]2C1C[C@@H](OC(C)=O)/C(C)=C/CC[C@@]1(C)O[C@H]21` (some centres not stated), the TGI in assay [1] is 87.7 µM; in assay [3], 20.9 µM; in assay [4], greater than 100 µM; in assay [5], 78 µM; in assay [6] it was 86 µM; in assay [8], 23.4 µM.

Turning to `Cc1cccc2sc(-c3ccc(O)cc3)nc12`, the TGI in assay [1] came out at 26.8 µM; in assay [2], 37.8 µM; in assay [3] it was 28.9 µM; in assay [4], 34.8 µM; in assay [5], 31.8 µM; in assay [7], 38.7 µM. This compound returned a TGI in assay [8] of 26.9 µM.

Regarding `CCCCCc1c(CCCC)c(=O)[nH]c2nc(NC(=O)CCCC)ccc12`, the TGI in assay [1], in assay [2], in assay [3], in assay [4], in assay [5] and in assay [7] was greater than 100 µM in each case. Further, in assay [8], the TGI is greater than 100 µM.

In the case of `O=C(c1ccccc1)N1CCC(CC2(c3cc4ccccc4[nH]3)OCCO2)CC1`, the TGI was 51 µM in assay [1]; greater than 100 µM in assay [2]; greater than 100 µM in assay [3]; greater than 100 µM in assay [4]; greater than 100 µM in assay [5]; greater than 100 µM in assay [7]. The same compound had a TGI in assay [8] of 43.9 µM.

With `COc1ccc(-c2c3c(n(C4OC(CO)C(O)C(O)C4O)c(=S)c2C#N)CCCC3)cc1` (configuration not stated), the TGI in assay [1], in assay [2], in assay [3], in assay [4], in assay [6] and in assay [7] was greater than 100 µM each time. The TGI in assay [8] is greater than 100 µM.

For the compound `Cc1ccc2c(=O)cc(-c3ccc(C)s3)[nH]c2n1`, the TGI in assay [2] was 0.972 µM; in assay [3], greater than 100 µM; in assay [4], greater than 33.8 µM; in assay [5], greater than 100 µM; in assay [7], greater than 100 µM; in assay [8], greater than 100 µM.

In the case of `CN(C)N1C(=O)S/C(=C\c2ccc([N+](=O)[O-])cc2)C1=O`, the TGI in assay [1], in assay [2], in assay [3], in assay [4], in assay [6] and in assay [7] was greater than 100 µM throughout. The same compound returned a TGI in assay [8] greater than 100 µM.

As for `CC(C)(Cl)C(Br)CCC(Br)(CCl)C(Cl)CBr` (configuration not stated), the TGI in assay [1], in assay [2], in assay [5], in assay [6], in assay [7] and in assay [8] was greater than 10 µM each time.
